Results: PubChem BioAssay AID651886 (Southern Research Specialized Biocontainment Screening …, 2012)
Calls of active or inactive are those of the source. How the calls were made is not given here.

Tested on: VEEV TC-83 infected cells, virus titer reduction
Assay: Secondary screen, VEEV TC 83 strain infected cells, log virus titer change, 5 µm (AID 651886)
Conditions: at 5 µM; hits give low values

## CCN1CCN(Cc2nc3ccc([N+](=O)[O-])cc3c(=O)n2-c2ccccc2F)CC1
  log virus titer change: -2.06

## CCN1CCN(Cc2nc3ccc([N+](=O)[O-])cc3c(=O)n2-c2ccccc2)CC1
  log virus titer change: < -7.54

## CCN1CCN(Cc2nc3ccc(C#N)cc3c(=O)n2-c2ccccc2)CC1
  log virus titer change: -1.65

## CN1CCN(C)C(=Nc2ccc([N+](=O)[O-])cc2C(=O)Nc2ccccc2)C1
  log virus titer change: < -7.2

## CN1CCN(Cc2nc3ccc([N+](=O)[O-])cc3c(=O)n2-c2ccccc2F)CC1
  log virus titer change: < -7.76

## O=c1c2cc([N+](=O)[O-])ccc2nc(CN2CCNCC2)n1-c1ccccc1
  log virus titer change: < -7.76

## COc1ccc(NC(=O)c2cc([N+](=O)[O-])ccc2N=C2CN(C)CCN2C)cc1
  log virus titer change: < -7.2

## CCN1CCN(Cc2nc3ccc(I)cc3c(=O)n2-c2ccccc2)CC1
  log virus titer change: -0.33 (inactive)

## CN1CCN(C)C(=Nc2ccc(C#N)cc2C(=O)Nc2ccccc2)C1
  log virus titer change: -5.82

## CN1CCN(C)C(=Nc2ccc(C#N)cc2C(=O)Nc2cccc(F)c2)C1
  log virus titer change: -1.43

## CCN1CCN(C)CC1=Nc1ccc([N+](=O)[O-])cc1C(=O)Nc1ccccc1
  log virus titer change: < -7.2

## CN1CCN(C)C(=Nc2ccc([N+](=O)[O-])cc2C(=O)Nc2ccccc2F)C1
  log virus titer change: -3.8

## CCN1CCN(Cc2nc3ccc([N+](=O)[O-])cc3c(=O)n2-c2ccc(F)cc2)CC1
  log virus titer change: -5.88

## CCN1CCN(Cc2nc3ccc([N+](=O)[O-])cc3c(=O)n2-c2cccc(F)c2)CC1
  log virus titer change: -7.11

## O=c1c2cc([N+](=O)[O-])ccc2nc(CN2CCNCC2)n1-c1ccccc1F
  log virus titer change: < -7.76

## O=c1c2cc([N+](=O)[O-])ccc2nc(CN2CCCCC2)n1-c1ccccc1F
  log virus titer change: -0.366 (inactive)
